Laboratory results from patent US8183388B2, “Androgen receptor modulator and uses thereof” (Eli Lilly and Company, priority 2009, dated 2012).
Like-named read-outs stand apart in the source and are kept apart here.

Tests used:
[1] = molecular target: T1, human androgen receptor (AR) (Homo sapiens, UniProt P10275); assay: C2C12 AR/ARE reporter assay; type: cell-based; settings: mouse myoblast C2C12 cells, agonist mode, geometric mean of n=7; SD of about 0.08
T1 construct: expressed in transfected cells; host or cells: mouse myoblast C2C12 cells
T1 sequence (P10275 1-920): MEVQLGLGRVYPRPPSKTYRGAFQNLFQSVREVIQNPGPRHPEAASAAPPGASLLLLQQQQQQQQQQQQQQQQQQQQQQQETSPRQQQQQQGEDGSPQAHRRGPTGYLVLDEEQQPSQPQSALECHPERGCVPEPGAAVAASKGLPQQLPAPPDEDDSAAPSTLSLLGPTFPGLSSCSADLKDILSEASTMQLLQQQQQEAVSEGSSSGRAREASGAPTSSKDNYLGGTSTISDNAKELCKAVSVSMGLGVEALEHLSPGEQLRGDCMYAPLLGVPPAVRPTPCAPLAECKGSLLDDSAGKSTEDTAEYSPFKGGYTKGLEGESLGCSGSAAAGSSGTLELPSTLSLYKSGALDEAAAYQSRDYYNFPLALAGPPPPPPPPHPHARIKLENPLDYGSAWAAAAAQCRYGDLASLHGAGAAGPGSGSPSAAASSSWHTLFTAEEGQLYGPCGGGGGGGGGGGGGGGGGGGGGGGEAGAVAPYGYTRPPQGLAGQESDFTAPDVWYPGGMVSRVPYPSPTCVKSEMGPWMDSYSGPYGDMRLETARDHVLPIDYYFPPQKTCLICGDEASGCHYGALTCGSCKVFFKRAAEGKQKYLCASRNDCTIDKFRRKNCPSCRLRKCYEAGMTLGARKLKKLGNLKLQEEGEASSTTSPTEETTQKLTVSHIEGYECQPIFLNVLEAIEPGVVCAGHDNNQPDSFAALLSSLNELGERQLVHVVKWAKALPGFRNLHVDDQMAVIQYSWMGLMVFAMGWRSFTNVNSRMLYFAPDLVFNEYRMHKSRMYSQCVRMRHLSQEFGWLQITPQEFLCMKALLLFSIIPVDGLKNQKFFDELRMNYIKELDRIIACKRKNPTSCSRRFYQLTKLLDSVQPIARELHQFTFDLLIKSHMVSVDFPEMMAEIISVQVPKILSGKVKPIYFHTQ
Method: As an indicator of agonist activity in muscle tissue, the C2C12 AR/ARE reporter assay is performed. Briefly, mouse myoblast C2C12 cells are co-transfected using Fugene™ reagent. A reporter plasmid containing a GRE/ARE (glucocorticoid response element/androgen response element) and TK promoter upstream of the luciferase reporter cDNA, is transfected with a plasmid constitutively expressing human androgen receptor (AR) using viral CMV promoter. Cells are transfected in T150 cm^2 flasks in DMEM media with 4% charcoal stripped Fetal Bovine Serum (FBS). After a 5 hour incubation, transfected cells are trypsinized, plated in 96 well dishes in DMEM media containing 4% charcoal-stripped FBS, incubated for 2 h and then exposed to various concentrations of test compounds ranging from about 0.01 nM to 10 μM. […] Data is fit to a 4 parameter-fit logistics to determine EC50 values. The % efficacy is determined versus maximum stimulation obtained with 10 nM methyltrienolone.

[2] = test system: castrated (GDX) male Sprague Dawley rats; assay: In vivo model of efficacy and selectivity (castrated rats, tissue wet weights); settings: for mean normalized LA wet weight value / mean normalized bulbocavernous wet weight value / mean normalized prostate wet weight value: two week treatment, n=6, wet weight divided by body weight
Method: Eight week old male Sprague Dawley rats are castrated (gonadectomized or “GDX”) according to approved procedures and allowed to waste for eight weeks. Age-matched sham-operated […] are also prepared. Animals are housed in a temperature-controlled room (24° C.) with a reversed 12 hour light/dark cycle and water and food are available ad libitum.
Animals are randomized based on body weight prior to ascribing a test slot. Test compound in vehicle, or vehicle alone, is administered daily by subcutaneous injection to the castrated 16 week old rats (body weight about 380-400 g) using a conventional vehicle such as 5% DMSO/95% soybean oil. Sham operated rats treated with vehicle alone are used as a treatment positive controls, whereas the castrated rats treated only with vehicle are used as treatment negative control. A separate cohort of castrated animals are treated with testosterone as a comparator.
Test animals are dosed daily over a two or eight week timeframe with, for example, 0.1, 0.3, or 1.0 mg/kg per day of the compound of the present invention, or weekly with 10 mg/kg per week of testosterone (sesame oil vehicle) After the treatment period the animals are sacrificed and the wet weight of the levator ani (LA) muscle, the prostate and the bulbocavernous muscle from each animal is determined (after weighing, the bulbocavernous muscle may be flash frozen in liquid nitrogen for later use in measuring neuronal nitric oxide synthase mRNA, as described below). The wet weights are then normalized by dividing each individual wet weight by the body weight of the corresponding animal at the end of the study. The normalized values from the treatment animals are then compared to the normalized values from the castrated, vehicle-only control group or the sham group. As an indicator of tissue selective activity, the wet weight of the prostate from test animals may be similarly compared to the wet weight of the prostate from the control groups or the testosterone-treated comparator group.

[3] = Determination of plasma exposure; type: in vivo; settings: Sprague Dawley, rat, male rats, read-out: AUC (area under the plasma concentration time curve)
Method: Groups of male Sprague Dawley rats (6 animals/group) are dosed either orally (dosing volume of 1.25 ml/kg; vehicle of 5% DMSO/95% HEC) or subcutaneously (dosing volume of 2.5 ml/kg; vehicle of 5% DMSO/95% soybean oil) with 10 mg/kg p.o, 1 mg/kg s.c., 3 mg/kg s.c., or 10 mg/kg s.c. of the compound of Formula (I), once per day for two weeks. Starting on the second to last day of dosing, plasma samples are collected at 0.5, 2, 4, or 24 hours post-dosing (two animals are sampled at each time-point, with the same animals being used for the 0.5 and 24 hour time-point samples). The plasma concentration of the compound of Formula (I) is determined for each collected sample using LC/MS/MS (Sciex API-4000 LC/MS/MS system). The resulting concentrations are used to construct an area under the plasma concentration time curve (AUC) for each administered dose as an index of exposure. Following a protocol essentially as described above, the administered doses of the compound of Formula (I) produced the following AUC values: 10 mg/kg p.o: about 295,511 ng·hr./ml.; 1 mg/kg s.c.: about 38,963 ng·hr./ml.; 3 mg/kg s.c.: about 137,056 ng·hr./ml.; and 10 mg/kg s.c.: about 218,537 ng·hr./ml.

SMILES: CC(C)OC(=O)N[C@H]1Cc2c(n(C[C@H]3OCC[C@@H]3O)c3ccc(C#N)cc23)C1 [compound of Formula (I), [(S)-7-Cyano-4-((2R,3S)-3-hydroxytetrahydrofuran-2-ylmethyl)-1,2,3,4-tetrahydrocyclopenta[b]indol-2-yl]-carbamic acid isopropyl ester]
- EC50 [1]: ~0.2 nM
- mean normalized LA wet weight value ([2]; 0.1 mg/kg per day s.c.): about 0.44
- mean normalized bulbocavernous wet weight value ([2]; 0.1 mg/kg per day s.c.): about 0.77
- mean normalized prostate wet weight value ([2]; 0.1 mg/kg per day s.c.): about 0.04
- mean normalized LA wet weight value ([2]; 0.3 mg/kg per day s.c.): about 0.57
- mean normalized bulbocavernous wet weight value ([2]; 0.3 mg/kg per day s.c.): about 1.29
- mean normalized prostate wet weight value ([2]; 0.3 mg/kg per day s.c.): about 0.14
- mean normalized LA wet weight value ([2]; 1.0 mg/kg per day s.c.): about 0.68
- mean normalized bulbocavernous wet weight value ([2]; 1.0 mg/kg per day s.c.): about 1.41
- mean normalized prostate wet weight value ([2]; 1.0 mg/kg per day s.c.): about 0.52
- levator ani and bulbocavernous muscle weights in comparison to the castrated control group ([2]; 0.1-1.0 mg/kg per day s.c., two weeks): dose dependent increase
- effect on prostate weight when compared to Sham control and testosterone treated animals ([2]; two weeks, tissue selectivity): decreased effect
- AUC ([3]; po, 10 mg/kg p.o. once per day for two weeks, 5% DMSO/95% HEC): ~296 µg·h/mL
- AUC ([3]; sc, 1 mg/kg s.c. once per day for two weeks, 5% DMSO/95% soybean oil): ~39 µg·h/mL
- AUC ([3]; sc, 3 mg/kg s.c. once per day for two weeks, 5% DMSO/95% soybean oil): ~137 µg·h/mL
- AUC ([3]; sc, 10 mg/kg s.c. once per day for two weeks, 5% DMSO/95% soybean oil): ~219 µg·h/mL
